Legend:
Test in all cases: relative viability (nuclei count vs DMSO), 5 days (fraction); higher = more cells survive
NCI-H2087 = tested on: NCI-H2087
Method in brief: (§1)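 Cells from lung cancer lines were seeded into 1536-well plates and, one day later, dosed by pin tool. Treatments were either a single drug or a fixed dose of an anchor drug with five library-drug doses (not always all listed) in √10 steps. After 5 days, nuclei were stained in a one-step fixation (final 0.05% Triton X-100, 1% formaldehyde, 1 ug/ml Hoechst) and counted on 4× images, and relative viability is the treated-to-vehicle nuclei ratio, as the median of duplicate plates.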

HCC-827 = tested on: HCC-827
Method in brief: as §1

NCI-H1944 = tested on: NCI-H1944
Method in brief: as §1

NCI-H727 = tested on: NCI-H727
Method in brief: as §1

201T = tested on: 201T
Method in brief: as §1

NCI-H647 = tested on: NCI-H647
Method in brief: as §1

NCI-H322M = tested on: NCI-H322M
Method in brief: as §1

RERF-LC-KJ = tested on: RERF-LC-KJ
Method in brief: as §1

NCI-H2405 = tested on: NCI-H2405
Method in brief: as §1

LCLC-103H = tested on: LCLC-103H
Method in brief: as §1

NCI-H1437 = tested on: NCI-H1437
Method in brief: as §1

LCLC-97TM1 = tested on: LCLC-97TM1
Method in brief: as §1

NCI-H2228 = tested on: NCI-H2228
Method in brief: as §1

SK-LU-1 = tested on: SK-LU-1
Method in brief: as §1

LXF-289 = tested on: LXF-289
Method in brief: as §1

CAL-12T = tested on: CAL-12T
Method in brief: as §1

NCI-H1650 = tested on: NCI-H1650
Method in brief: as §1

BEN = tested on: BEN
Method in brief: as §1

NCI-H1395 = tested on: NCI-H1395
Method in brief: as §1

NCI-H1793 = tested on: NCI-H1793
Method in brief: as §1

NCI-H3122 = tested on: NCI-H3122
Method in brief: as §1

Compound CC(=O)O[C@@]12CO[C@@H]1C[C@H](O)[C@@]1(C)C(=O)[C@H](O)C3=C(C)[C@@H](OC(=O)[C@H](O)[C@@H](NC(=O)OC(C)(C)C)c4ccccc4)C[C@@](O)([C@@H](OC(=O)c4ccccc4)[C@H]21)C3(C)C [Docetaxel] + COc1cc2c(Oc3ccc(NC(=O)C4(C(=O)Nc5ccc(F)cc5)CC4)cc3F)ccnc2cc1OCCCN1CCOCC1 [Foretinib] (partner 0.25 µM) has a relative viability (NCI-H2087; first compound 0.0002 µM) of 0.955, a relative viability (NCI-H2087; first compound 0.000632 µM) of 0.477 and a relative viability (NCI-H2087; first compound 0.002 µM) of 0.249. The relative viability (NCI-H2087; first compound 0.006325 µM) was 0.115, the relative viability (NCI-H2087; first compound 0.02 µM) was 0.105 and the relative viability (HCC-827; first compound 0.0002 µM) was 1.03. It also gave a relative viability (HCC-827; first compound 0.000632 µM) of 1, a relative viability (HCC-827; first compound 0.002 µM) of 0.771 and a relative viability (HCC-827; first compound 0.006325 µM) of 0.362. The relative viability (HCC-827; first compound 0.02 µM) was 0.291, the relative viability (NCI-H1944; first compound 0.0002 µM) was 0.85 and the relative viability (NCI-H1944; first compound 0.000632 µM) was 0.86. For the same compound, the relative viability (NCI-H1944; first compound 0.002 µM) was 0.692, the relative viability (NCI-H1944; first compound 0.006325 µM) was 0.31 and the relative viability (NCI-H1944; first compound 0.02 µM) was 0.151. For the same compound, the relative viability (NCI-H727; first compound 0.0002 µM) was 0.834, the relative viability (NCI-H727; first compound 0.000632 µM) was 0.693 and the relative viability (NCI-H727; first compound 0.002 µM) was 0.788. For the same compound, the relative viability (NCI-H727; first compound 0.006325 µM) was 0.507, the relative viability (NCI-H727; first compound 0.02 µM) was 0.346 and the relative viability (201T; first compound 0.0002 µM) was 1.15. It also gave a relative viability (201T; first compound 0.000632 µM) of 0.712, a relative viability (201T; first compound 0.002 µM) of 0.473 and a relative viability (201T; first compound 0.006325 µM) of 0.29. The relative viability (201T; first compound 0.02 µM) was 0.213, the relative viability (NCI-H647; first compound 0.0002 µM) was 1.25 and the relative viability (NCI-H647; first compound 0.000632 µM) was 1.06. It also gave a relative viability (NCI-H647; first compound 0.002 µM) of 0.179, a relative viability (NCI-H647; first compound 0.006325 µM) of 0.182 and a relative viability (NCI-H647; first compound 0.02 µM) of 0.111. The relative viability (NCI-H322M; first compound 0.0002 µM) was 0.928, the relative viability (NCI-H322M; first compound 0.000632 µM) was 0.949 and the relative viability (NCI-H322M; first compound 0.002 µM) was 0.956. The relative viability (NCI-H322M; first compound 0.006325 µM) was 0.702, the relative viability (NCI-H322M; first compound 0.02 µM) was 0.463 and the relative viability (RERF-LC-KJ; first compound 0.0002 µM) was 0.882. It also gave a relative viability (RERF-LC-KJ; first compound 0.000632 µM) of 0.898, a relative viability (RERF-LC-KJ; first compound 0.002 µM) of 0.402 and a relative viability (RERF-LC-KJ; first compound 0.006325 µM) of 0.2. It also gave a relative viability (RERF-LC-KJ; first compound 0.02 µM) of 0.203, a relative viability (NCI-H2405; first compound 0.0002 µM) of 1.05 and a relative viability (NCI-H2405; first compound 0.000632 µM) of 1. It also gave a relative viability (NCI-H2405; first compound 0.002 µM) of 0.6, a relative viability (NCI-H2405; first compound 0.006325 µM) of 0.402 and a relative viability (NCI-H2405; first compound 0.02 µM) of 0.306. For the same compound, the relative viability (LCLC-103H; first compound 0.0002 µM) was 0.674, the relative viability (LCLC-103H; first compound 0.000632 µM) was 0.61 and the relative viability (LCLC-103H; first compound 0.002 µM) was 0.485. For the same compound, the relative viability (LCLC-103H; first compound 0.006325 µM) was 0.339, the relative viability (LCLC-103H; first compound 0.02 µM) was 0.272 and the relative viability (NCI-H1437; first compound 0.0002 µM) was 1.12. It also gave a relative viability (NCI-H1437; first compound 0.000632 µM) of 1.21, a relative viability (NCI-H1437; first compound 0.002 µM) of 0.351 and a relative viability (NCI-H1437; first compound 0.006325 µM) of 0.273. It also gave a relative viability (NCI-H1437; first compound 0.02 µM) of 0.188, a relative viability (LCLC-97TM1; first compound 0.0002 µM) of 0.846 and a relative viability (LCLC-97TM1; first compound 0.000632 µM) of 0.641. For the same compound, the relative viability (LCLC-97TM1; first compound 0.002 µM) was 0.697, the relative viability (LCLC-97TM1; first compound 0.006325 µM) was 0.218 and the relative viability (LCLC-97TM1; first compound 0.02 µM) was 0.146. It also gave a relative viability (NCI-H2228; first compound 0.0002 µM) of 0.785, a relative viability (NCI-H2228; first compound 0.000632 µM) of 0.222 and a relative viability (NCI-H2228; first compound 0.002 µM) of 0.185. For the same compound, the relative viability (NCI-H2228; first compound 0.006325 µM) was 0.145, the relative viability (NCI-H2228; first compound 0.02 µM) was 0.137 and the relative viability (SK-LU-1; first compound 0.0002 µM) was 0.737. For the same compound, the relative viability (SK-LU-1; first compound 0.000632 µM) was 0.459, the relative viability (SK-LU-1; first compound 0.002 µM) was 0.451 and the relative viability (SK-LU-1; first compound 0.006325 µM) was 0.275. The relative viability (SK-LU-1; first compound 0.02 µM) was 0.196, the relative viability (LXF-289; first compound 0.0002 µM) was 0.977 and the relative viability (LXF-289; first compound 0.000632 µM) was 0.924. For the same compound, the relative viability (LXF-289; first compound 0.002 µM) was 0.207, the relative viability (LXF-289; first compound 0.006325 µM) was 0.147 and the relative viability (LXF-289; first compound 0.02 µM) was 0.0982. It also gave a relative viability (CAL-12T; first compound 0.0002 µM) of 0.979, a relative viability (CAL-12T; first compound 0.000632 µM) of 0.729 and a relative viability (CAL-12T; first compound 0.002 µM) of 0.238. The relative viability (CAL-12T; first compound 0.006325 µM) was 0.216, the relative viability (CAL-12T; first compound 0.02 µM) was 0.163 and the relative viability (NCI-H1650; first compound 0.0002 µM) was 1.07. The relative viability (NCI-H1650; first compound 0.000632 µM) was 0.598, the relative viability (NCI-H1650; first compound 0.006325 µM) was 0.213 and the relative viability (NCI-H1650; first compound 0.02 µM) was 0.204. The relative viability (BEN; first compound 0.0002 µM) was 0.625, the relative viability (BEN; first compound 0.000632 µM) was 0.926 and the relative viability (BEN; first compound 0.002 µM) was 0.606. For the same compound, the relative viability (BEN; first compound 0.006325 µM) was 0.285, the relative viability (BEN; first compound 0.02 µM) was 0.197 and the relative viability (NCI-H1395; first compound 0.0002 µM) was 0.883. It also gave a relative viability (NCI-H1395; first compound 0.000632 µM) of 0.874, a relative viability (NCI-H1395; first compound 0.002 µM) of 0.904 and a relative viability (NCI-H1395; first compound 0.006325 µM) of 0.456. For the same compound, the relative viability (NCI-H1395; first compound 0.02 µM) was 0.342, the relative viability (NCI-H1793; first compound 0.0002 µM) was 0.592 and the relative viability (NCI-H1793; first compound 0.000632 µM) was 0.493. For the same compound, the relative viability (NCI-H1793; first compound 0.002 µM) was 0.391, the relative viability (NCI-H1793; first compound 0.006325 µM) was 0.204 and the relative viability (NCI-H1793; first compound 0.02 µM) was 0.186. For the same compound, the relative viability (NCI-H3122; first compound 0.0002 µM) was 0.993, the relative viability (NCI-H3122; first compound 0.000632 µM) was 0.901 and the relative viability (NCI-H3122; first compound 0.002 µM) was 0.761. It also gave a relative viability (NCI-H3122; first compound 0.006325 µM) of 0.16 and a relative viability (NCI-H3122; first compound 0.02 µM) of 0.106.

Reference: the supplement of paper PMC10307832
